Holding throughout (assay): MTT cell viability assay, combinations (Chou-Talalay method)
Assay type in all cases: cell-based
(In general: Tetrazolium assays rely on reduction of a dye to a coloured formazan, in cell work by metabolically active cells.)

The subject of one experiment is H3122 Cells. The conditions noted are these: for IC50: Homo sapiens. On the procedure: (§1) The combinations comprising the compound of formula (1) were tested using an MTT proliferation assay in a panel of tumor cell lines of different origins. All culture materials were obtained from the sources described in Example 2. In the Chou-Talalay method, which is the standard, universally known methodology to determine drug interactions, the two drugs under study are maintained at a fixed ratio of IC50 single agent (drug 1):IC50 single agent (drug 2) while the concentration of total amount of drugs in the combination is varied and the 20% (IC20), 50% (IC50) and 80% (IC80) of growth inhibition of the combination is determined.
(§2) In the activity assays on cell lines the following terms are used: • IC50: Drug concentration at which 50% growth inhibition is achieved. • TKI IC50: The IC50 of the tyrosine kinase inhibitor as single agent. • Compound (1) IC50: The IC50 of compound (1) as single agent. • CI@IC20: The combination index of the combination consisting of drug 1 and drug 2 at a weight ratio equal to IC50 of drug 1:IC50 of drug 2 wherein said combination is used at a total amount that achieves 20% of growth inhibition. • CI@IC50: The combination index of the combination consisting of drug 1 and drug 2 at a weight ratio equal to IC50 of drug 1:IC50 of drug 2, wherein said combination is used at a total amount that achieves 50% of growth inhibition. • CI@IC80: The combination index of the combination consisting of drug 1 and drug 2 at a weight ratio equal to IC50 of drug 1:IC50 of drug 2, wherein said combination is used at a total amount that achieves 80% of growth inhibition. • Combination TKI IC50: The combination index at a tyrosine kinase inhibitor concentration that corresponds to the IC50 (single agent). • The combination index (CI) concept was introduced by Chou T.C. and Talalay P.(Chou TC, Talalay P. Adv Enzyme Regul 1984;22:27-55). The derived combination index equation for two drugs is (D = dosage or concentration): CI = ((D)1)/((Dx)1) + ((D)2)/((Dx)2) [formula] where (Dx)1 is the concentration of drug 1 "alone" that inhibits growth at a x% (i.e. (D50)1 is the concentration of drug 1 "alone" that inhibits growth at a 50%), (Dx)2 is the concentration of drug 2 "alone" that inhibits growth at a x%, (D)1 and (D)2 refer to the concentration of drug 1 and drug 2, respectively, in the combination, wherein the combination inhibits growth at the same x%. The CI Value quantitatively defines synergism (CI<1) (in particular, CI values of CI<0.7 indicates strong synergism, 0.7<CI<0.85 indicates moderate synergism, 0.85<CI<1 indicates slight synergism), additive effect (CI=1) and antagonism (CI>1). Based on the above equation, a plot of CI values at different effect levels (fa's) can be determined. Entering a series of "dose" ((D1), (D2), ((Dx)1 and (Dx)2) and % of growth inhibition (%x or effect (fa))" into an excel sheet for each drug alone and their combinations, the CI values at different x% (or fa levels) are obtained using the above equation. This plot is also called the Fa-CI plot or the Chou-Talalay plot.
(§3) Cell viability in response to combination treatment was assessed by the Thiazolyl Blue Tetrazolium Bromide (MTT) (Sigma, St Louis, MO) assay. Cells from each cell line were seeded at 2000 to 10000 per well in 96-well plates. […] Twenty-four hours after seeding, cells were exposed to compound (1), commercial drug or combinations thereof for 72 h. In the Chou-Talalay method, which is the standard, universally known methodology to determine drug interactions, the two drugs under study are maintained at a fixed ratio IC50 single agent (drug 1):IC50 single agent (drug 2).
(§4) After treatment, cells were incubated with medium containing MTT (0.75 mg/mL in medium) for 1-2 h at 37°C. Culture medium with MTT was removed and formazan crystals reabsorbed in 100 µL DMSO (Sigma, St. Louis, MO). Cell viability was determined by measuring the absorbance at 492 nm, using a microplate reader (BioWhittaker, Walkersville, MD).

A further experiment concerns H2228 Cells. The settings on record: Homo sapiens, H2228 cells. How it is done:
as §1, §2, §3, §4

A further experiment deals with HCC78 cells. How it is done:
as §1, §2, §3, §4

Setting [1] is: NCI-H3122, 72 h, H3122 cells, tyrosine kinase inhibitor as single agent, 72 h, read-out: TKI IC50.
[2] abbreviates: Homo sapiens, HCC78, 72 h, HCC78 cells, tyrosine kinase inhibitor as single agent, 72 h, read-out: TKI IC50.

Like-named read-outs stand apart in the source and are kept apart here.

With `CCc1cc2c(cc1N1CCC(N3CCOCC3)CC1)C(C)(C)c1[nH]c3cc(C#N)ccc3c1C2=O` [Alectinib, 9-ethyl-6,6-dimethyl-8-(4-morpholinopiperidin-1-yl)-11-oxo-6,11-dihydro-5H-benzo[b]carbazole-3-carbonitrile], the “Fold change in the TKI IC50” value in the experiment with H3122 Cells (H3122 cells, TKI single agent vs with compound (1)) came out at 3.355 fold. The IC50 (usually the concentration that inhibits the measured activity by half) in the experiment with H3122 Cells (setting [1]) turned out to be 0.05 µM; in the experiment on H3122 Cells (NCI-H3122, H3122 cells, TKI in combination with compound (1), read-out: Combination TKI IC50), 0.015 µM.

Consider `C[C@@H](Oc1cc(-c2cnn(C3CCNCC3)c2)cnc1N)c1c(Cl)ccc(F)c1Cl` [Crizotinib, 3-[(1R)-1-(2,6-dichloro-3-fluorophenyl)ethoxy]-5-(1-piperidin-4-ylpyrazol-4-yl)pyridin-2-amine], for which the IC50 amounted to 0.053 µM in the experiment on H2228 Cells (NCI-H2228, read-out: IC50 of crizotinib when compound of formula (1) was also administered, combination with compound (1)); 0.25 µM with H2228 Cells (NCI-H2228, tyrosine kinase inhibitor as single agent, 72 h, read-out: TKI IC50); 7.16 µM in the experiment with HCC78 cells (HCC78 cells, tyrosine kinase inhibitor as single agent, 72 h, read-out: TKI IC50); 7.2 µM with HCC78 cells (setting [2]); 0.25 µM with HCC78 cells (Homo sapiens, HCC78, read-out: Combination TKI IC50, HCC78 cells, TKI in combination with compound (1)); 0.249 µM with HCC78 cells (read-out: Combination TKI IC50, HCC78 cells, TKI in combination with compound (1)). For the same compound, the IC50 was 0.19 µM in the experiment on H3122 Cells (setting [1]) and 0.029 µM in the experiment with H3122 Cells (NCI-H3122, read-out: IC50 of crizotinib in presence of compound of formula (1), H3122 cells, combination with compound (1)).

For the compound `COc1cc2c(Oc3ccc(NC(=O)C4(C(=O)Nc5ccc(F)cc5)CC4)cc3F)ccnc2cc1OCCCN1CCOCC1` [Foretinib, N^1'-[3-fluoro-4-[[6-methoxy-7-(3-morpholinopropoxy)-4-quinolyl]oxy]phenyl]-N'-(4-fluorophenyl)cyclopropane-1,1-dicarboxamide], the “Fold change in the TKI IC50” value in the experiment on HCC78 cells (HCC78 cells, TKI single agent vs with compound (1)) was found to be 2.846 fold. Also, the IC50 in the experiment with HCC78 cells (setting [2]) was 0.37 µM; in the experiment on HCC78 cells (Homo sapiens, HCC78, HCC78 cells, TKI in combination with compound (1), read-out: Combination TKI IC50), 0.13 µM.

Source of the values: patent EP3120851A1, “4-AMINO-6-(2,6-DICHLOROPHENYL)-8-METHYL-2-(PHENYLAMINO)-PYRIDO[2,3-D]PYRIMIDIN-7(8H)-ONE FOR TREATMENT OF SOLID CANCERS” (Pangaea Biotech S.L., priority 2015, dated 2017).
